Assays:
interferon (α) = test: Cytokine Induction in Human Cells: interferon (α) by ELISA; type: cell-based; details: PBMC; human PBMCs, incubated 18 to 24 hours, lowest concentration found to induce interferon
Outline: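 Healthy-donor human PBMCs (1.5–2×10^6 cells/mL final, RPMI with 10% FBS) exposed to serially diluted compound (≤1% DMSO) for 18–24 h at 37 °C, 5% CO2. Supernatant IFN-α measured by ELISA; value reported is lowest concentration inducing interferon.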

[1] = tested on: tumor necrosis factor (α); test: Cytokine Induction in Human Cells: tumor necrosis factor (α) by ELISA; type: cell-based; details: PBMC; human PBMCs, incubated 18 to 24 hours, lowest concentration found to induce tumor necrosis factor
Outline: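 Healthy-donor PBMCs (1.5–2×10^6 cells/mL final, RPMI with 10% FBS) incubated 18–24 h at 37 °C with compound in three- or ten-fold serial dilutions, DMSO ≤1% final. Supernatant TNF measured by ELISA; value is lowest concentration inducing TNF.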

SMILES	minimal effective concentration (interferon (α)) [µM]	melting point [°C]	minimal effective concentration [1] [µM]
CCCc1nc2c(N)nc3ccccc3c2n1CCCCNC(=O)Nc1ccccc1 [Example 160, N-[4-(4-amino-2-propyl-1H-imidazo[4,5-c]quinolin-1-yl)butyl]-N′-phenylurea]	0.12	182.8 to 184	1.11
CCCCNC(=O)NCCCn1c(CCOC)nc2c(N)nc3ccccc3c21 [Example 162, N-{3-[4-amino-2-(2-methoxyethyl)-1H-imidazo[4,5-c]quinolin-1-yl]propyl}-N′-butylurea]	0.01	159 to 160	0.04
COCCc1nc2c(N)nc3ccccc3c2n1CCCNC(=O)N1CCOCC1 [Example 163, N-{3-[4-amino-2-(2-methoxyethyl)-1H-imidazo[4,5-c]quinolin-1-yl]propyl}morpholine-4-carboxamide]	0.01	194 to 196	0.01
CCCCc1nc2c(N)nc3ccccc3c2n1CCCCNC(=O)Nc1ccccc1 [Example 164, N-[4-(4-amino-2-butyl-1H-imidazo[4,5-c]quinolin-1-yl)butyl]-N′-phenylurea]	0.04	185 to 187	0.12
Cc1nc2c(N)nc3c(c2n1CCCCNC(=O)N1CCOCC1)CCCC3 [Example 170, N-[4-(4-amino-2-methyl-6,7,8,9-tetrahydro-1H-imidazo[4,5-c]quinolin-1-yl)butyl]morpholine-4-carboxamide]	0.12	133.6 to 134.6	10
Nc1nc2ccccc2c2c1nc(CCCOc1ccccc1)n2CCCCNC(=O)N1CCOCC1 [Example 171, N-{4-[4-amino-2-(3-phenoxypropyl)-1H-imidazo[4,5-c]quinolin-1-yl]butyl}morpholine-4-carboxamide]	> 30	71.5 to 72.1	10
CC(C)(C)OC(=O)NCCCn1cnc2c(N)nc3ccccc3c21 [Example 173, tert-butyl 3-(4-amino-1H-imidazo[4,5-c]quinolin-1-yl)propylcarbamate]	1.11	196 to 198	10
CC(C)(C)OC(=O)NCCCn1c(CCCOc2ccccc2)nc2c(N)nc3ccccc3c21 [Example 174, tert-butyl 3-[4-amino-2-(3-phenoxypropyl)-1H-imidazo[4,5-c]quinolin-1-yl]propylcarbamate]	> 30	151 to 153	> 30
CCOCc1nc2c(N)nc3ccccc3c2n1CCCNC(=O)OC(C)(C)C [Example 175, tert-butyl 3-[4-amino-2-(ethoxymethyl)-1H-imidazo[4,5-c]quinolin-1-yl]propylcarbamate]	0.04	124 to 126	0.37
Cc1nc2c(N)nc3ccccc3c2n1CCCNC(=O)OC(C)(C)C [Example 176, tert-butyl 3-(4-amino-2-methyl-1H-imidazo[4,5-c]quinolin-1-yl)propylcarbamate]	0.12	112 to 115	1.11
CCOCc1nc2c(N)nc3ccccc3c2n1CCNC(=O)OC(C)(C)C [Example 177, tert-butyl 2-[4-amino-2-(ethoxymethyl)-1H-imidazo[4,5-c]quinolin-1-yl]ethylcarbamate]	0.04	201 to 202	0.37
COCCc1nc2c(N)nc3ccccc3c2n1CCNC(=O)OC(C)(C)C [Example 178, tert-butyl 2-[4-amino-2-(methoxyethyl)-1H-imidazo[4,5-c]quinolin-1-yl]ethylcarbamate]	0.12	173 to 175	1.11
